Type: physicochemical
Description: Circular Dichroism (CD) analysis was performed by a Jasco J-810 spectropolarimeter. The samples were loaded into a quartz cuvette of 0.1 cm path length (Hellma Analytics), and the spectra were recorded in the 195–250 nm range at a scan speed of 20 nm/min, averaging 5 scans. CD experiments were carried out in 10 mM Tris-HCl buffer, pH 7.0, as a function of SDS concentrations (3, 50, and 150 mM) at a peptide concentration of 50 µM. The folding kinetic measurements of the peptides were performed after the addition of SDS (50 mM) to each sample (50 µM in 10 mM Tris-HCl, pH 7.0) up to 24 h of incubation. For thermal stability analyses, the peptides were prepared to a final concentration of 50 μM in 10 mM Tris-HCl, pH 7.0, and then they were incubated at 4 and 25 °C up to 48 h before acquiring the CD spectra in the presence of 50 mM SDS. A blank spectrum of a sample containing all components except the peptide was acquired for the baseline correction of the CD spectra of the peptide. The mean residue ellipticity ([θ], deg cm^2 dmol^−1) was obtained by the equation [θ] = 100 θ/cnl, where θ is the ellipticity (mdeg), c is the peptide concentration (mM), n is the number of residues, and l is the path length (cm).
Tryptophan (Trp) fluorescence emission spectra were recorded at 25 °C on a Shimadzu RF-6000 spectrofluorometer (Kyoto, Japan), with both excitation and emission slit widths set at 5 nm. The intrinsic Trp was excited at a wavelength of 280 nm and the emission was monitored between 300 and 400 nm. Fluorescence measurements were carried out in 10 mM Tris-HCl buffer, pH 7.0, as a function of SDS concentrations (3, 50, and 150 mM) at a peptide concentration of 50 µM. The folding kinetic experiments of AVP2 and RiLK30 were performed after the addition of SDS (50 mM) to each sample (50 µM concentration in 10 mM Tris-HCl buffer, pH 7.0) up to 24 h of incubation. The effect of temperature on peptide folding was analyzed by dissolving the peptides at a final concentration of 50 µM in 10 mM Tris-HCl buffer, pH 7.0, and incubating them at 4 and 25 °C up to 48 h. The spectra were recorded in the presence of 50 mM SDS.

Q: For “KLRWVKIWKK-NH2 [RiLK30, newly designed RiLK1 derivative, Arg residues exchanged with Lys and Lys3 with Arg]”, which “thermal (conformational) stability in SDS micellar solution” value (pH 7) is on record?
A: The value was “at least 48 h”.

Q: And the “conformational rearrangement over time (CD and fluorescence spectra)” value (peptide 50 µM, 10 mM Tris-HCl pH 7.0, SDS 50 mM, 24 h incubation at 37 °C (legend: 25 °C))?
A: Its value is “did not appear to undergo significant changes”.

Q: And the “self-aggregation (CD in SDS)” value (peptide 50 µM, 10 mM Tris-HCl pH 7.0, SDS 3, 50, 150 mM, 25 °C)?
A: Its value is “high propensity to self-aggregate”.
